From patent US4654348A, “Pyrazolo[4,3-d]pyrimidine derivative, process for its production, antihyperlipidemic agent containing it, its intermediate, and process for the production of the intermediate” (Nissan Chemical Industries Ltd., priority 1984, dated 1987)

Tested on: emulsion-induced hyperlipidemic rats
Assay: Test 1: antihyperlipidemic activity in emulsion-induced hyperlipidemic rats (serum Chol, HDL-Chol, liver weight)
Format: in vivo, male S.D. rats
Details: 3 days, vs control; for inhibition in vivo at 300 mg/kg / change in vivo at 300 mg/kg: Rattus norvegicus, po, 72 h, 300 mg/kg/day via stomach tube; for inhibition in vivo at 300 mg/kg: read-out: Reduction rate of serum Chol.; for change in vivo at 300 mg/kg: read-out: Increase rate of serum HDL-Chol; for Degree of hepatomegaly (change rate of the liver weight): liver weight per 100 g body weight, 300 mg/kg/day
Protocol: The antihyperlipidemic activity in emulsion-induced hyperlipidemic rats:
Male S.D. rats weighing 80-90 g (4 weeks old) were used. They were divided into groups of 5 to 6 rats each. The test compounds suspended in 0.5% CMC-Na(carboxymethyl cellulose sodium salt) were given to the rats in a daily dose of 4 ml/kg (i.e. 300 mg/kg of the test compounds) via stomach tube every 10:00 a.m. After 30 min., lipids emulsion having the following composition was orally given to the rats in an amount of 2.5 ml per rat.
Cholic acid sodium salt 10.0 g
During the experimental period of 3 days, the rats were fed on a standard commercial diet and water ad libitum. […] The total cholesterol and HDL cholesterol were measured.
The weight of the liver was measured. To the control group, only the aqueous CMC-Na solution and the lipids emulsion were given.
The fractionation of lipoproteins was conducted by a dextran sulfate-MgCl2 precipitation method.
Cholesterol in serum was measured by means of a cholesterol measuring kit (Cholesterol C-Test Wako, manufactured by Wako Junyaku Co., Ltd.), and cholesterol in HDL was measured by means of NC Hi-Set, manufactured by Nippon Chemiphar Co., Ltd.
Further, the reduction rate of Chol was calculated by the following equation. [formula] where A is the amount of serum Chol (mg/dl) of the control group, and B is the amount of serum Chol (mg/dl) of the group to which the therapeutic agent was administered.
Likewise, the increase rate of HDL-Chol was calculated by the following equation. [formula] where C is the amount of serum HDL-Chol (mg/dl) of the control group, and D is the amount of serum HDL-Chol (mg/dl) of the group to which the therapeutic agent was administered.
The degree of hepatomegaly (i.e. the change rate of the liver weight) was calculated by the following equation. [formula] where E is the liver weight (g) per 100 g of the body weight of the control group, and F is the liver weight (g) per 100 g of the body weight of the group to which the therapeutic agent was administered.

Row | SMILES | inhibition in vivo at 300 mg/kg | change in vivo at 300 mg/kg | Degree of hepatomegaly (change rate of the liver weight)
1 | CCCCCCCCCCCCCCC(C)Oc1c2ncnc(SCC(=O)OCC)c2nn1C (stereo not drawn) [Example 43, 2-Methyl-3-(1-methylpentadecyloxy)-7-ethoxycarbonylmethylthio-pyrazolo[4,3-d]pyrimidine] | 28% | – | –
2 | CCCCCCCCCCCCCCCCOc1c2ncnc(SCC(=O)OCCCC)c2nn1C [Example 33, 2-Methyl-3-n-hexadecyloxy-7-n-butoxycarbonylmethylthio-pyrazolo[4,3-d]pyrimidine] | 39% | – | –
3 | CCCCCCCCCCCCCCCCCCCCOc1c2ncnc(SC(C)(C)C(=O)OCC)c2nn1C [Example 29, 2-Methyl-3-n-eicosyloxy-7-(1-ethoxycarbonyl-1-methyl-ethylthio)-pyrazolo[4,3-d]pyrimidine] | 16% | – | –
4 | CCCCCCCCCCCCOc1c2ncnc(SC(C)(C)C(=O)OCC)c2nn1C [Example 28, 2-Methyl-3-n-dodecyloxy-7-(1-ethoxycarbonyl-1-methyl-ethylthio)-pyrazolo[4,3-d]pyrimidine] | 36% | – | –
5 | CCCCC/C=C\C/C=C\CCCCCCCCOc1c2ncnc(SC(C)C(=O)OCC)c2nn1C (stereo not drawn) [Example 58, 2-Methyl-3-linoleyloxy-7-(1-ethoxycarbonylethylthio)-pyrazolo[4,3-d]pyrimidine] | 32% | – | –
6 | CCOC(=O)CSc1ncnc2c(OC3CCC(C4CCCCC4)CC3)n(C)nc12 (stereo not drawn) [Example 34, 2-Methyl-3-(4-cyclohexyl-cyclohexyloxy)-7-ethoxycarbonylmethylthio-pyrazolo[4,3-d]pyrimidine] | 12% | – | –
7 | CCCCC/C=C\C/C=C\CCCCCCCCOc1c2ncnc(SCC(=O)OCCCC)c2nn1C [Example 56, 2-Methyl-3-linoleyloxy-7-n-butoxycarbonylmethylthio-pyrazolo[4,3-d]pyrimidine] | 60% | – | –
8 | CCOC(=O)CSc1ncnc2c(OCCC(C)CCCC(C)CCCC(C)C)n(C)nc12 (stereo not drawn) [Example 41, 2-Methyl-3-(3,7,11-trimethyl-dodecyloxy)-7-ethoxycarbonylmethylthio-pyrazolo[4,3-d]pyrimidine] | 48% | – | –
9 | CCCCCCCCCCCCCCOc1c2ncnc(SCC(=O)OCC)c2nn1C [Example 3] | 41% | – | –
10 | CCCCCCCCCCCCCCCCCCCCOc1c2ncnc(SCC(=O)OCC)c2nn1C [Example 8, 2-Methyl-3-n-eicosanyloxy-7-ethoxycarbonylmethylthio-pyrazolo[4,3-d]pyrimidine] | 37% | – | –
11 | CCCCCCCCCCCCCCCCOc1c2ncnc(SCC(=O)OC)c2nn1C [Example 15, 2-Methyl-3-n-hexadecyloxy-7-methoxycarbonylmethylthio-pyrazolo[4,3-d]pyrimidine] | 53% | – | –
12 | CCCCOCCOCCOc1c2ncnc(SCC(=O)OCC)c2nn1C [Example 39, 2-Methyl-3-(3,6-dioxadecyloxy)-7-ethoxycarbonylmethylthio-pyrazolo[4,3-d]pyrimidine] | 11% | – | –
13 | CCOC(=O)CSc1ncnc2c(OCCOCc3ccc(C(C)(C)C)cc3)n(C)nc12 [Example 38, 2-Methyl-3-[2-(4-t-butylbenzyloxy)ethoxy]-7-ethoxycarbonylmethylthio-pyrazolo[4,3-d]pyrimidine] | 15% | – | –
14 | CCCCCCCCCCCCCCCCCOc1c2ncnc(SCC(=O)OCC)c2nn1C [Example 5] | 21% | 38% | +3%
15 | CCCCCCCCCCCCOc1c2ncnc(SCC(=O)OCC)c2nn1C [Example 2, 2-Methyl-3-n-dodecyloxy-7-ethoxycarbonylmethylthio-pyrazolo[4,3-d]pyrimidine] | 36% | – | –
16 | CCOC(=O)CSc1ncnc2c(OCCOCc3ccccc3)n(C)nc12 [Example 36, 2-Methyl-3-(2-benzyloxyethoxy)-7-ethoxycarbonylmethylthio-pyrazolo[4,3-d]pyrimidine] | 44% | – | –
17 | CCCCCCCCCCCCCCCCOc1c2ncnc(SCCc3ccccc3)c2nn1C [Example 21, 2-Methyl-3-n-hexadecyloxy-7-phenethylthio-pyrazolo[d]pyrimidine] | 10% | – | –
18 | CCCCC/C=C\C/C=C\CCCCCCCCOc1c2ncnc(SCCCCCC)c2nn1C [Example 55, 2-Methyl-3-linoleyloxy-7-n-hexylthio-pyrazolo[4,3-d]pyrimidine] | 58% | – | –

Row | SMILES | inhibition in vivo at 300 mg/kg | change in vivo at 300 mg/kg | Degree of hepatomegaly (change rate of the liver weight)
19 | C=CCCCCCCCCOc1c2ncnc(SCC(=O)OCC)c2nn1-c1ccccc1 [Example 51, 2-Phenyl-3-(9-decenyloxy)-7-ethoxycarbonylmethylthio-pyrazolo[4,3-d]pyrimidine] | 58% | – | –
20 | C=CCCCCCCCCCOc1c2ncnc(SCC(=O)OCC)c2nn1C [Example 73, 2-Methyl-3-(10-undecenyloxy)-7-ethoxycarbonylmethylthio-pyrazolo[4,3-d]pyrimidine] | 27% | – | –
21 | CCCCCCCCCCCCOc1c2ncnc(SC(C)(C)C(=O)OCC)c2nn1-c1ccccc1 [Example 32, 2-Phenyl-3-n-dodecyloxy-7-(1-ethoxycarbonyl-1-methylethylthio)-pyrazolo[4,3-d]pyrimidine] | 50% | – | –
22 | CCCCCCCCCCCCCCCCOc1c2ncnc(SCC(=O)OCC)c2nn1-c1ccccc1 [Example 52, 2-Phenyl-3-n-hexadecyloxy-7-ethoxycarbonylmethylthio-pyrazolo[4,3-d]pyrimidine] | 30% | – | –
23 | CCCCCCCCCCC/C=C\CCCCCOc1c2ncnc(SCC(=O)OCC)c2nn1C [Example 71, 2-Methyl-3-petroselinyloxy-7-ethoxycarbonylmethylthio-pyrazolo[4,3-d]pyrimidine] | 64% | – | –
24 | CCCCCCCC/C=C\CCCCCCCCOc1c2ncnc(SCC(=O)OCC)c2nn1-c1ccccc1 [Example 50, 2-Phenyl-3-oleyloxy-7-ethoxycarbonylmethylthio-pyrazolo[4,3-d]pyrimidine] | 35% | – | –
25 | CCOC(=O)CSc1ncnc2c(OCCOCc3ccc(CC)cc3)n(C)nc12 [Example 37, 2-Methyl-3-[2-(4-ethylbenzyloxy)ethoxy]7-ethoxycarbonylmethylthio-pyrazolo[4,3-d]pyrimidine] | 37% | – | –
26 | CCCCC/C=C\C/C=C\CCCCCCCCOc1c2ncnc(SCCCC(=O)OCC)c2nn1C [Example 59, 2-Methyl-3-linoleyloxy-7-[3-(ethoxycarbonyl)propylthio]-pyrazolo[4,3-d]pyrimidine] | 68% | – | –
27 | CCCCCCCCCCCCCCCCOc1c2ncnc(SCCCCCCCCCCCCCCCC)c2nn1C [Example 24, 2-Methyl-3-n-hexadecyloxy-7-n-hexadecylthio-pyrazolo[4,3-d]pyrimidine] | 41% | – | –
28 | CCCCCCCC/C=C\CCCCCCCCCCCCOc1c2ncnc(SCC(=O)OCC)c2nn1C [Example 69, 2-Methyl-3-erucyloxy-7-ethoxycarbonylmethylthio-pyrazolo[4,3-d]pyrimidine] | 59% | – | –
29 | CCCC=CCCOc1c2ncnc(SCC(=O)OCC)c2nn1-c1ccccc1 [Example 53, 2-Phenyl-3-(3-heptenyloxy)-7-ethoxycarbonylmethylthio-pyrazolo[4,3-d]pyrimidine] | 11% | – | –
30 | CCOC(=O)CSc1ncnc2c(OC3CCC(C)CC3)n(C)nc12 (stereo not drawn) [Example 35, 2-Methyl-3-(4-methylcyclohexyloxy)-7-ethoxycarbonylmethylthio-pyrazolo[4,3-d]pyrimidine] | 13% | – | –
31 | CCCCC/C=C\C/C=C\CCCCCCCCOc1c2ncnc(SCC#N)c2nn1C [Example 57, 2-Methyl-3-linoleyloxy-7-cyanomethylthio-pyrazolo[4,3-d]pyrimidine] | 61% | – | –
32 | CCCCSCCOc1c2ncnc(SCC(=O)OCC)c2nn1-c1ccccc1 [Example 49, 2-Phenyl-3-(3-thia-heptyloxy)-7-ethoxycarbonylmethylthio-pyrazolo[4,3-d]pyrimidine] | 14% | – | –
33 | CCCCC/C=C\C/C=C\CCCCCCCCOc1c2ncnc(SCCCCCCCCCCC(=O)OCC)c2nn1C [Example 61] | 35% | – | –
34 | CCCCCCCCCCCCCCCCCCOc1c2ncnc(SCC(=O)OCC)c2nn1C [Example 6, 2-Methyl-3-n-octadecyloxy-7-ethoxycarbonylmethylthio-pyrazolo[4,3-d]pyrimidine] | 31% | 9% | -1%
35 | CCCCC/C=C\C/C=C\CCCCCCCCOc1c2ncnc(SCC(=O)OC)c2nn1C [Example 54, 2-Methyl-3-linoleyloxy-7-methoxycarbonylmethylthio-pyrazolo[4,3-d]pyrimidine] | 79% | – | –
